Source: ChEMBL document CHEMBL1201862, “PubChem BioAssay data set” (2004)
Activity calls are given as the source filed them.

Key:
[1] = cells; type: functional, cell-based
[2] = C. albicans growth with fluconazole, confirmation, fluorescence, retest (AID 2467); type: functional, cell-based
[3] = target: T1, Sphingosine 1-phosphate receptor 4 (Homo sapiens, UniProt O95977); test: Fluorescence dose response cell-based high throughput screening assay for antagonists of the Sphingosine 1-Phosphate Receptor 4 (S1P4). [Related pubchem assays: 1524 (Confirmation in triplicates.), 1510 (Primary screen.)]; type: functional
T1 sequence (O95977 whole entry): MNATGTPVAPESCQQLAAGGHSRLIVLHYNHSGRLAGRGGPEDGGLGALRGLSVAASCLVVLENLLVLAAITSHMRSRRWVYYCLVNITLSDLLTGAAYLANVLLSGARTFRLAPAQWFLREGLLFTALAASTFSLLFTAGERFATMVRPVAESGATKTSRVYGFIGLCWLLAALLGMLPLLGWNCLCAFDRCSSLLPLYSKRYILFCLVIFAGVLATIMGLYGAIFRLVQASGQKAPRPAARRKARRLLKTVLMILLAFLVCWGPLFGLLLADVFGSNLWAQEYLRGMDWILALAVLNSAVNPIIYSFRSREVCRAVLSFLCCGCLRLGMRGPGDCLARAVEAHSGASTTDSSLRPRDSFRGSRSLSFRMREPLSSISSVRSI

[4] = system: Vero; test: cells; type: functional; settings: Chlorocebus sabaeus
[5] = Counterscreen for AddAB inhibitors: absorbance-based bacterial cell-based high throughput dose response assay for inhibitors of bacterial viability. [Related pubchem assays (depositor defined):AID435030, AID449728, AID449731, AID488942, AID488955, AID488956]; type: functional
[6] = system: Streptococcus sp. 'group A'; test: growth inhibition of control SK(-) GAS strain, dose response, counter-screen for streptokinase expression inhibitor project, luminescence, kanamycin, BacTiterGlo, confirmation (AID 1900); type: functional, organism-based
[7] = Luminescence-based counterscreen assay for KLF5 inhibitors: dose response cell-based high throughput screening assay to identify cytotoxic compounds using the IEC-6 intestinal epithelial cell line. [Related pubchem assays: 1700 (Primary screen.), 1834 (Confirmation screen.), 1858 (Summary AID.), 1905 (Counterscreen.)]; type: functional
[8] = system: Streptococcus; test: Group A Streptococcus viability loss, dose response, counter-screen for streptokinase expression inhibitor project, luminescence, BacTiterGlo (AID 1915); type: functional, organism-based;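 also: potency for reduction of bacterial viability or growth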
[9] = inhibitors of HIV Env-driven cell fusion, dose response, cherry-pick (AID 652057); type: functional, cell-based
[10] = target: T2, Apoptotic protease-activating factor 1 (Homo sapiens, UniProt O14727); type: functional
T2 sequence (O14727 whole entry): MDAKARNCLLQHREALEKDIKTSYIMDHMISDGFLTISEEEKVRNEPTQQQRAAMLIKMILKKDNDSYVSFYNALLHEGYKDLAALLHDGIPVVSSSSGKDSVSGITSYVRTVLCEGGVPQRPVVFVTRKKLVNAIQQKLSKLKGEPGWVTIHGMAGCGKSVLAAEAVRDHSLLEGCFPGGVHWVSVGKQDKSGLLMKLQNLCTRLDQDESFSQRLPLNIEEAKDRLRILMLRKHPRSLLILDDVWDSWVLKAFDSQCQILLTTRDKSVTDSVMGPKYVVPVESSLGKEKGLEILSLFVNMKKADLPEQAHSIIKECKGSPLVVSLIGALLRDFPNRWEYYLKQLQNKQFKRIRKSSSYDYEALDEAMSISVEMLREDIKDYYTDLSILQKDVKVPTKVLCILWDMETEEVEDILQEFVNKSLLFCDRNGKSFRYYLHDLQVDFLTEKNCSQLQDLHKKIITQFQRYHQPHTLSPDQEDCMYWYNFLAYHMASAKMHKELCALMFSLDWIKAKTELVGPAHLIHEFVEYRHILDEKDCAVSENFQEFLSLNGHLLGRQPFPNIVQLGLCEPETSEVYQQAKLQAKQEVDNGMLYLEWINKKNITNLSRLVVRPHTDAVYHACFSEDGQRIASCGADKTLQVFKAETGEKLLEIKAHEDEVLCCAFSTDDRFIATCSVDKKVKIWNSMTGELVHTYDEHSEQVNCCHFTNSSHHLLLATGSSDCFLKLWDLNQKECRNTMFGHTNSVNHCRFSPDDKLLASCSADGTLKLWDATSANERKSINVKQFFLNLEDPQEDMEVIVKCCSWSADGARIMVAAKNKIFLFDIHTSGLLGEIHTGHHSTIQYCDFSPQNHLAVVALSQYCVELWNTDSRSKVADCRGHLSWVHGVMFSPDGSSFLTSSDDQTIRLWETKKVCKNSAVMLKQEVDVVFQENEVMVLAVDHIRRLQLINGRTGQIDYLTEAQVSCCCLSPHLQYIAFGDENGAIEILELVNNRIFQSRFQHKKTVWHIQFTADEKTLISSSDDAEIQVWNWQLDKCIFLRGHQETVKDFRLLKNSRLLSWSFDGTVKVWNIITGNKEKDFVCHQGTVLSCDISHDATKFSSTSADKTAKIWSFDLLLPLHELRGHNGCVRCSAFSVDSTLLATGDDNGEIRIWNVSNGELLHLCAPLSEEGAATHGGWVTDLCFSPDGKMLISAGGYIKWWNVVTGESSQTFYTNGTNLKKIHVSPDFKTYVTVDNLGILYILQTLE

[11] = target: Heat shock protein HSP 90-alpha (Homo sapiens, UniProt P07900); test: Luminescence-based dose response biochemical high throughput screening assay for inhibitors of the Heat Shock Protein 90 (HSP90). [Related pubchem assays: 1831 (Summary AID.), 1846 (Confirmation screen.), 1789 (Primary screen.)]
[12] = off-target signal loss in HeLa-CEM21 co-culture – HeLa F-luc CTL cells, cherry-picked, counter-screen for HIV-1 Env fusion inhibitor project, dose response (AID 652040); type: functional, cell-based;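 also: potency for signal decrease marking cytotoxic or nonspecific inhibition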

In the case of `Oc1c(C(c2ccccc2Cl)N2CCCC2)ccc2cccnc12` (configuration not stated), the EC50 [1] is reported as > 350 µM (not active), the EC50 [2] is reported as 1.08 µM (active) and the IC50 [3] is reported as 2.25 µM (active). The CC50 [4] was 17.1 µM (active) and the IC50 [5] was 95.3 µM (inactive).
In the case of `COc1cccc(/C=N/Nc2ccc([N+](=O)[O-])cn2)c1O`, the EC50 [1] is reported as 5.16 µM (active), the EC50 [2] is reported as 1.51 µM (active) and the EC50 [6] is reported as 0.912 µM (active). For the same compound, the IC50 [7] was 16.2 µM (not active), the IC50 [5] was > 118 µM (inactive) and the EC50 [8] was 1.65 µM (active).
With `CCc1ccc(S(=O)(=O)/N=C2\C=C(Nc3ccc(C(=O)O)cc3)C(=O)c3ccccc32)cc1` the AC50 [9] was 8.79 µM (active), the IC50 [10] was 9.6 µM (active) and the IC50 [11] was 0.966 µM (active). The EC50 [6] was 0.451 µM (active), the AC50 [12] was 1.29 µM (active) and the EC50 [8] was 6.26 µM (active).
